Experimental data published in patent publication US20230132133A1, “METHODS AND COMPOSITIONS FOR THE TREATMENT OF C. DIFFICILE” (priority 2018, published 2023).
≈ marks a conversion by molar mass, not a printed value. Where “and” joins values, the source holds several entries; their conditions need not be identical. Identical values can stand only once.

Tests used:
[1] = tested on: B. amyloliquefaciens ART24; assay: Antibiotic MIC following EFSA testing recommendations on lyophilized ART24 lots and cell banks; assay type: cell-based, Bacillus amyloliquefaciens
Excerpt: The minimum inhibitory concentration (MIC) of the listed antimicrobials is expressed as µg/mL.

C. difficile ATCC 43255 = assay: C. difficile mouse model, in vivo efficacy; parameters: species or system Mice (C57BL/6J female); conditions: to study day 10 post-C. difficile infection
Experimental: C. difficile mouse model. The mouse model of C. difficile infection was prepared as described elsewhere (Chen, X, et al., Gastroenterology 135:1984-1992 (2008)).
Mice (C57BL/6J female) were divided prospectively into 4 treatment groups of 15 animals (Table 7) and housed 5 animals per cage.
Mice received an antibiotic cocktail for eight consecutive days in their drinking water starting 13 days prior to C. difficile infection (study day 0). The antibiotic cocktail was changed every third day with freshly prepared antibiotics provided. The antibiotic cocktail consisted of 1% glucose, kanamycin (0.5 mg/mL), gentamicin (0.044 mg/mL), colistin (1062.5 U/mL), metronidazole (0.269 mg/mL), ciprofloxacin (0.156 mg/mL), ampicillin (0.1 mg/mL) and vancomycin (0.056 mg/mL). Five days prior to C. difficile infection, the antibiotic water was removed. Animals were placed in clean cages and sterile drinking water provided to the mice. Three days prior to infection mice were administered Clindamycin at 10 mg/kg via oral gavage in a volume of 10 mL/kg.
The strain was applied to TSA agar plates from frozen stocks (3 days prior to dosing) and cultured overnight at 37° C. […]
Mice were observed daily through the course of the study. […] Clinical observations were also performed with adverse observations recorded when appropriate. […]

[2] = tested on: B. amyloliquefaciens ART24; assay: Antibiotic MIC, VetMIC Lact-1 & Lact-2 panels; assay type: cell-based, Bacillus amyloliquefaciens; conditions: Bacillus amyloliquefaciens, ART24; 24 hr at 37° C.
Experimental: (§1) The wells of the prefabricated 96-well plates were filled with 100 μL of the final suspension. The plates were sealed with an […], Sigma Aldrich) sealing film (to facilitate growth of the aerobic Bacillus strains. The plates were then incubated for 24 hr at 37° C. The results are recorded after 24 hours as the lowest concentration of the antibiotic to inhibit visible growth. The prefabricated panels […], Uppsala, Sweden) comprising the antibiotics ampicillin, vancomycin, gentamicin, kanamycin, streptomycin, erythromycin, clindamycin, tetracycline, chloramphenicol, neomycin, penicillin, quinupristin-dalfopristin, linezolid, trimethoprim, ciprofloxacin and rifampicin were used.

[3] = tested on: B. amyloliquefaciens ART4; assay: Antibiotic MIC, VetMIC Lact-1 & Lact-2 panels; assay type: cell-based, Bacillus amyloliquefaciens; conditions: Bacillus amyloliquefaciens, ART4; 24 hr at 37° C.
Experimental: as §1

[4] = tested on: B. amyloliquefaciens ART12; assay: Antibiotic MIC, VetMIC Lact-1 & Lact-2 panels; assay type: cell-based, Bacillus amyloliquefaciens; conditions: Bacillus amyloliquefaciens, ART12; 24 hr at 37° C.
Experimental: as §1

Q: With `CN[C@H](CC(C)C)C(=O)N[C@H]1C(=O)N[C@@H](CC(N)=O)C(=O)N[C@H]2C(=O)N[C@H]3C(=O)N[C@H](C(=O)N[C@H](C(=O)O)c4cc(O)cc(O)c4-c4cc3ccc4O)[C@H](O)c3ccc(c(Cl)c3)Oc3cc2cc(c3O[C@@H]2O[C@H](CO)[C@@H](O)[C@H](O)[C@H]2O[C@H]2C[C@](C)(N)[C@H](O)[C@H](C)O2)Oc2ccc(cc2Cl)[C@H]1O` [Vancomycin] as the compound, how does the “MIC interpretation for ART24” value [1] read?
A: 0.5 (S) and ≤0.25 (S)

Q: What about the MIC ([1]; Bacillus amyloliquefaciens, ART24, read-out: MIC for ART24) of the same compound?
A: 0.5 µg/mL (≈ 0.345 µM)

Q: And the “animals survived (survivors/group)” value (C. difficile ATCC 43255)?
A: 15/15

Q: And the MIC [2]?
A: 0.5 to 1 µg/mL (≈ 0.345 to 0.69 µM)

Q: What about the MIC [3] of the same compound?
A: 0.5 µg/mL (≈ 0.345 µM)

Q: What about the MIC [4] of the same compound?
A: 0.5 µg/mL (≈ 0.345 µM)
